In ChEMBL document CHEMBL1772944, “Homoflavonoid glucosides from Ophioglossum pedunculosum and their anti-HBV activity” (J Nat Prod, 2011):

How the values were obtained:
[1] = Cytotoxicity against human HepG2(2.2.15) cells after 8 days by MTT assay; format: cell-based
[2] = tested on: Hepatitis B virus; test: Antiviral activity against HBV transfected in human HepG2(2.2.15) cells assessed as inhibition of HBsAg secretion by ELISA; format: functional, organism-based

| SMILES | CC50 at 192 h [1] [µM] | IC50 [2] [µM] |
| --- | --- | --- |
| O=c1c(CO)c(-c2ccc(O[C@@H]3O[C@H](CO)[C@@H](O)[C@H](O)[C@H]3O)c(O)c2)oc2cc(O)cc(O)c12 | 19.7 |  |
| COc1c(-c2ccc(O[C@@H]3O[C@H](CO)[C@@H](O)[C@H](O)[C@H]3O)c(O)c2)oc2cc(O[C@@H]3O[C@H](CO)[C@@H](O)[C@H](O)[C@H]3O)cc(O)c2c1=O | 7.9 |  |
| COc1c(-c2ccc(O)c(O)c2)oc2cc(O)cc(O)c2c1=O [3-O-METHYLQUERCETIN] | 2.1 |  |
| Nc1ccn([C@@H]2CS[C@H](CO)O2)c(=O)n1 [LAMIVUDINE] | 2400 | 58 |
| O=c1c2c(oc3cc(O)cc(O)c13)-c1ccc(O)c(O)c1CO2 [OPHIOGLONIN] | 20.4 |  |
| O=c1c(CO)c(-c2ccc(O[C@@H]3O[C@H](CO)[C@@H](O)[C@H](O)[C@H]3O)c(O)c2)oc2cc(O[C@@H]3O[C@H](CO)[C@@H](O)[C@H](O)[C@H]3O[C@@H]3O[C@H](CO)[C@@H](O)[C@H](O)[C@H]3O)cc(O)c12 [PEDUNCULOSUMOSIDE E] | > 100 |  |
| O=c1c(CO)c(-c2ccc(O[C@@H]3O[C@H](CO)[C@@H](O)[C@H](O)[C@H]3O)c(O)c2)oc2cc(O[C@@H]3O[C@H](CO)[C@@H](O)[C@H](O)[C@H]3O)cc(O)c12 [PEDUNCULOSUMOSIDE F] | 56.7 |  |
| O=c1c(O)c(-c2ccc(O)c(O)c2)oc2cc(O)cc(O)c12 [QUERCETIN] | 38.1 |  |
| COc1c(-c2ccc(O)c(O)c2)oc2cc(O[C@@H]3O[C@H](CO)[C@@H](O)[C@H](O)[C@H]3O)cc(O)c2c1=O [TRANSILIN] | 5.4 |  |
